Like-named read-outs stand apart in the source and are kept apart here.
Assays:
Assay type in all cases: biochemical
human Yes1 enzyme = biological target: T1, human Yes1 enzyme (Homo sapiens, UniProt P07947); experiment: Yes1 enzyme inhibitory activity (time-resolved fluorometry, biotinylated peptide phosphorylation); conditions: read-out: YES_IC50
T1 construct: made in house
Summary of the method: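 Inhibition was expressed against a compound-free control to give IC50, using TR-FRET read-out (Eu-cryptate anti-pTyr antibody, streptavidin-XL665).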

human Src enzyme = biological target: T2, human Src enzyme (Homo sapiens, UniProt P12931); experiment: Src enzyme inhibitory activity (time-resolved fluorometry, biotinylated peptide phosphorylation); conditions: read-out: SRC_IC50
T2 construct: purchased Carna Biosciences, Inc. 08-173
T2 sequence (P12931 whole entry): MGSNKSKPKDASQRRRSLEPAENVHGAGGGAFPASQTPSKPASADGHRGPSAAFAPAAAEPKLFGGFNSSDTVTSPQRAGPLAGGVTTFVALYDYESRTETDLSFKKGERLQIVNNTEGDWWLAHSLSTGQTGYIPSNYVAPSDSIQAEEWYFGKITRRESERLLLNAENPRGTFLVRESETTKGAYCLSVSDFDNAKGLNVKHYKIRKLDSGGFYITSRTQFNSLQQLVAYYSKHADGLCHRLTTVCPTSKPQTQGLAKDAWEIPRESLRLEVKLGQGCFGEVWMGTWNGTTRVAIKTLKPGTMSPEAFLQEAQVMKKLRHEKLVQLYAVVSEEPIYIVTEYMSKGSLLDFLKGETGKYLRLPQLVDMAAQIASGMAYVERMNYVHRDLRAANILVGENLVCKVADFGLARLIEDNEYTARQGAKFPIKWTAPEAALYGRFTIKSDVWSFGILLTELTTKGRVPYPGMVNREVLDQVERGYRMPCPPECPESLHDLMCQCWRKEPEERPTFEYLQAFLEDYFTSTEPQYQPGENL
Summary of the method: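 Compounds were tested for blocking tyrosine phosphorylation of a biotinylated peptide substrate by recombinant human Src. Phosphorylated product was quantified by time-resolved fluorometry using europium cryptate and XL665 conjugates, and IC50 was calculated against the compound-free control.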

human Lck enzyme = biological target: T3, human Lck enzyme (Homo sapiens, UniProt P06239); experiment: Lck enzyme inhibitory activity (time-resolved fluorometry, biotinylated peptide phosphorylation); conditions: read-out: LCK_IC50
T3 construct: purchased Carna Biosciences, Inc. 08-170
T3 sequence (P06239 whole entry): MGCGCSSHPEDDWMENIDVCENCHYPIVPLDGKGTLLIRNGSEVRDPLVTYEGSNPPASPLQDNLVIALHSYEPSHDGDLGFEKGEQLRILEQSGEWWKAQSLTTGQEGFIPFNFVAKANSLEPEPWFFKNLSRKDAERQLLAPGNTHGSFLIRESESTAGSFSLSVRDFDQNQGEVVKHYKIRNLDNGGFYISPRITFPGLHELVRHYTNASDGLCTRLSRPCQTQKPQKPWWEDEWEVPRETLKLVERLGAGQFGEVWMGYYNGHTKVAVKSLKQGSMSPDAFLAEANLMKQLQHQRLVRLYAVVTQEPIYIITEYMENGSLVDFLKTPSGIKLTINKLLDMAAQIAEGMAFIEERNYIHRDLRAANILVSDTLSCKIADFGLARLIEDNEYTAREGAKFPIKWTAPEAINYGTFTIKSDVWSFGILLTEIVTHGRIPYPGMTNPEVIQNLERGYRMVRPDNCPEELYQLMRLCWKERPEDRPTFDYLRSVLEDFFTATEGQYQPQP
Summary of the method: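 Readout pairs a europium cryptate-labelled anti-phosphotyrosine antibody with XL665-streptavidin, measured by time-resolved fluorescence. IC50 derived from percent inhibition against untreated controls.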

[1] = biotinylated peptide phosphorylation

T1 sequence (P07947 whole entry): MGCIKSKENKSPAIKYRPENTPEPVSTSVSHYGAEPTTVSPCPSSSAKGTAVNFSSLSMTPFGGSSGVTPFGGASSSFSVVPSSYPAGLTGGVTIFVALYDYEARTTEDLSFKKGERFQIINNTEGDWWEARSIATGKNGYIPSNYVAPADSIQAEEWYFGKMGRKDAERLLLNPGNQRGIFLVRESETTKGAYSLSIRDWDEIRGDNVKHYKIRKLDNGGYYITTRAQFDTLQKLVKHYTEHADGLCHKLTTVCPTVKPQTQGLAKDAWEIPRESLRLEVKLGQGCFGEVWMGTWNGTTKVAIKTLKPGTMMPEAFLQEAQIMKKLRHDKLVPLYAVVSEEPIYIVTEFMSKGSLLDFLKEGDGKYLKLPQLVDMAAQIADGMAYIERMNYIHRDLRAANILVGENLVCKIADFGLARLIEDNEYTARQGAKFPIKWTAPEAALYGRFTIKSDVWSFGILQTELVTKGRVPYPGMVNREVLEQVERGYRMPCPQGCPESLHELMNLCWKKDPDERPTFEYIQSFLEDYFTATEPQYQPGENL

SMILES | IC50 (human Yes1 enzyme) | IC50 (human Src enzyme) | IC50 (human Lck enzyme) | IC50 (human Yes1 enzyme; [1]) | IC50 (human Src enzyme; [1]) | IC50 (human Lck enzyme; [1])
Cc1cc(Oc2ccccc2F)ccc1-n1ncc(C(=O)c2cc3cc(F)c(N4C(=O)NC(C)(C)C4=O)cc3[nH]2)c1N [Example 5-1-127, 3-[2-[5-amino-1-[4-(2-fluorophenoxy)-2-methylphenyl]pyrazole-4-carbonyl]-5-fluoro-1H-indol-6-yl]-5,5-dimethylimidazolidine-2,4-dione] | 0.67 nM | 39 nM | 4 nM |  |  | 
Cc1cc(Oc2ccccc2F)cc(F)c1-n1ncc(C(=O)c2cc3cc(OCC(F)F)c(NC4CN(S(C)(=O)=O)C4)cc3[nH]2)c1N [Example 4-23-027, [5-amino-1-[2-fluoro-4-(2-fluorophenoxy)-6-methylphenyl]pyrazol-4-yl]-[5-(2,2-difluoroethoxy)-6-[(1-methylsulfonylazetidin-3-yl)amino]-1H-indol-2-yl]methanone] |  |  |  | 1.9 nM | 16 nM | 7.6 nM
Cc1cc(Oc2ccccc2F)ccc1-n1ncc(C(=O)c2cc3cc(C4CC4)c(NS(=O)(=O)CCCF)cc3[nH]2)c1N [Example 5-1-426, N-[2-[5-amino-1-[4-(2-fluorophenoxy)-2-methylphenyl]pyrazole-4-carbonyl]-5-cyclopropyl-1H-indol-6-yl]-3-fluoropropane-1-sulfonamide] |  |  |  | 2 nM | 95 nM | 36 nM
Cc1cc(Oc2ccccc2F)ncc1-n1ncc(C(=O)c2cc3cc(OC(F)F)c(NS(C)(=O)=O)cc3[nH]2)c1N [Example 4-24-008, N-[2-[5-amino-1-[6-(2-fluorophenoxy)-4-methylpyridin-3-yl]pyrazole-4-carbonyl]-5-(difluoromethoxy)-1H-indol-6-yl]methanesulfonamide] |  |  |  | 2.1 nM | 99 nM | 19 nM
CC(C)N1CCC(c2cc3cc(C(=O)c4cnn(-c5ccc(Oc6cccc(Cl)c6)cc5)c4N)[nH]c3cc2F)CC1 [Example 4-2-005, [5-amino-1-[4-(3-chlorophenoxy)phenyl]pyrazol-4-yl]-[6-fluoro-5-(1-propan-2-ylpiperidin-4-yl)-1H-indol-2-yl]methanone] |  |  |  | 1.5 nM | 20 nM | 5 nM
Cc1cc(Oc2ccccc2F)ccc1-n1ncc(C(=O)c2cc3cc(F)c(N4C(=O)NC5(COC5)C4=O)cc3[nH]2)c1N [Example 5-1-376, 7-[2-[5-amino-1-[4-(2-fluorophenoxy)-2-methylphenyl]pyrazole-4-carbonyl]-5-fluoro-1H-indol-6-yl]-2-oxa-5,7-diazaspiro[3.4] octane-6,8-dione] | 1.4 nM | 14 nM | 4 nM |  |  | 
COc1cccc(S(=O)(=O)Nc2cc3[nH]c(C(=O)c4cnn(-c5cnc(Oc6ccccc6F)cc5C)c4N)cc3cc2C)n1 [Example 5-1-483, N-[2-[5-amino-1-[6-(2-fluorophenoxy)-4-methylpyridin-3-yl]pyrazole-4-carbonyl]-5-methyl-1H-indol-6-yl]-6-methoxypyridine-2-sulfonamide] |  |  |  | 6.7 nM | 710 nM | 250 nM
Cc1cc(Oc2c(F)cccc2F)ncc1-n1ncc(C(=O)c2cc3cc(OCC(F)F)c(NS(=O)(=O)Cc4ccccc4)cc3[nH]2)c1N [Example 5-1-296, N-[2-[5-amino-1-[6-(2,6-difluorophenoxy)-4-methylpyridin-3-yl]pyrazole-4-carbonyl]-5-(2,2-difluoroethoxy)-1H-indol-6-yl]-1-phenylmethanesulfonamide] | 5.9 nM | 150 nM | 46 nM |  |  | 
Cc1cnc(F)c(S(=O)(=O)Nc2cc3[nH]c(C(=O)c4cnn(-c5ccc(Oc6ccccc6F)cc5C)c4N)cc3cc2C)c1 [Example 5-1-520, N-[2-[5-amino-1-[4-(2-fluorophenoxy)-2-methylphenyl]pyrazole-4-carbonyl]-5-methyl-1H-indol-5-yl]-2-fluoro-5-methylpyridine-3-sulfonamide] |  |  |  | 2.7 nM | 270 nM | 67 nM
Cc1cc(Oc2c(F)cccc2F)ncc1-n1ncc(C(=O)c2cc3cc(OCC(F)F)c(N4CCOC4=O)cc3[nH]2)c1N [Example 4-21-005, 3-[2-[5-amino-1-[6-(2,6-difluorophenoxy)-4-methylpyridin-3-yl]pyrazole-4-carbonyl]-5-(2,2-difluoroethoxy)-1H-indol-6-yl]-1,3-oxazolidin-2-one] |  |  |  | 1.2 nM | 11 nM | 4.3 nM
Cc1cc(Oc2c(F)cccc2F)ncc1-n1ncc(C(=O)c2cc3cc(F)c(NS(=O)(=O)c4cncc(Cl)c4)cc3[nH]2)c1N [Example 5-1-543, N-[2-[5-amino-1-[6-(2,6-difluorophenoxy)-4-methylpyridin-3-yl]pyrazole-4-carbonyl]-5-fluoro-1H-indol-6-yl]-5-chloropyridine-3-sulfonamide] |  |  |  | 9.8 nM | 640 nM | 360 nM
Cc1cc(Oc2c(F)cccc2F)ncc1-n1ncc(C(=O)c2cc3cc(F)c(N4CCOCC4)cc3[nH]2)c1N [Example 5-1-100, [5-amino-1-[6-(2,6-difluorophenoxy)-4-methylpyridin-3-yl]pyrazol-4-yl]-(5-fluoro-6-morpholin-4-yl-1H-indol-2-yl)methanone] | 1.6 nM | 8.7 nM | 1.3 nM |  |  | 
Cc1cc(Oc2c(F)cccc2F)ncc1-n1ncc(C(=O)c2cc3cc(OC4CCN(C(C)C)CC4)c(-c4cncnc4)cc3[nH]2)c1N [Example 5-1-241, [5-amino-1-[6-(2,6-difluorophenoxy)-4-methylpyridin-3-yl]pyrazol-4-yl]-[5-(1-propan-2-ylpiperidin-4-yl)oxy-6-pyrimidin-5-yl-1H-indol-2-yl]methanone] | 1.8 nM | 5.5 nM | 6.1 nM |  |  | 
Cc1cc(Oc2cccc(F)c2F)cc(F)c1-n1ncc(C(=O)c2cc3cc(NS(C)(=O)=O)c(Cl)cc3[nH]2)c1N [Example 4-2-094, N-[2-[5-amino-1-[4-(2,3-difluorophenoxy)-2-fluoro-6-methylphenyl]pyrazole-4-carbonyl]-6-chloro-1H-indol-5-yl]methanesulfonamide] |  |  |  | 2 nM | 33 nM | 8.2 nM
Cc1cc(Oc2ccccc2F)ccc1-n1ncc(C(=O)c2cc3cc(F)c(N4C(=O)N[C@@H](C(C)C)C4=O)cc3[nH]2)c1N [Example 5-1-447, (5S)-3-[2-[5-amino-1-[4-(2-fluorophenoxy)-2-methylphenyl]pyrazole-4-carbonyl]-5-fluoro-1H-indol-6-yl]-5-propan-2-ylimidazolidine-2,4-dione] |  |  |  | 2 nM | 84 nM | 12 nM
Cc1cc(Oc2ccccc2F)ccc1-n1ncc(C(=O)c2cc3cc(F)c(N4C(=O)NC5(CCCC5)C4=O)cc3[nH]2)c1N [Example 5-1-438, 3-[2-[5-amino-1-[4-(2-fluorophenoxy)-2-methylphenyl]pyrazolo-4-carbonyl]-5-fluoro-1H-indol-6-yl]-1,3-diazaspiro[4.4]nonane-2,4-dione] |  |  |  | 1.9 nM | 120 nM | 15 nM
Cc1cc2cc(C(=O)c3cnn(-c4cnc(Oc5ccccc5F)cc4C)c3N)[nH]c2cc1N1C(=O)NC(C)(C)C1=O [Example 5-1-334, 3-[2-[5-amino-1-[6-(2-fluorophenoxy)-4-methylpyridin-3-yl]pyrazole-4-carbonyl]-5-methyl-1H-indol-6-yl]-5,5-dimethylimidazolidine-2,4-dione] | 1.3 nM | 41 nM | 4 nM |  |  | 
Cc1cc2cc(C(=O)c3cnn(-c4cnc(Oc5ccccc5F)cc4C)c3N)[nH]c2cc1NS(=O)(=O)c1csc2ccccc12 [Example 5-1-467, N-[2-[5-amino-1-[6-(2-fluorophenoxy)-4-methylpyridin-3-yl]pyrazole-4-carbonyl]-5-methyl-1H-indol-6-yl]-1-benzothiophene-3-sulfonamide] |  |  |  | 24 nM | 3800 nM | 370 nM
Cc1cc(Oc2ccccc2F)cc(F)c1-n1ncc(C(=O)c2cc3cc(NS(C)(=O)=O)c(Cl)cc3[nH]2)c1N [Example 4-2-093, N-[2-[5-amino-1-[2-fluoro-4-(2-fluorophenoxy)-6-methylphenyl]pyrazole-4-carbonyl]-6-chloro-1H-indol-5-yl]methanesulfonamide] |  |  |  | 0.89 nM | 19 nM | 5.7 nM
Cc1cc(Oc2c(F)cccc2F)ncc1-n1ncc(C(=O)c2cc3cc(SC(F)F)c(NS(=O)(=O)C4CCOCC4)cc3[nH]2)c1N [Example 5-1-346, N-[2-[5-amino-1-[6-(2,6-difluorophenoxy)-4-methylpyridin-3-yl]pyrazole-4-carbonyl]-5-(difluoromethylsulfanyl)-1H-indol-6-yl]oxane-4-sulfonamide] | 8.8 nM | 510 nM | 120 nM |  |  | 
Cc1cc(Oc2c(F)cccc2F)ncc1-n1ncc(C(=O)c2cc3cc(OC(F)F)c(N4C(=O)C(C)(C)NC4=S)cc3[nH]2)c1N [Example 4-23-038, 3-[2-[5-amino-1-[6-(2,6-difluorophenoxy)-4-methylpyridin-3-yl]pyrazole-4-carbonyl]-5-(difluoromethoxy)-1H-indol-6-yl]-5,5-dimethyl-2-sulfanylideneimidazolidin-4-one] |  |  |  | 1.2 nM | 71 nM | 10 nM
Cc1cc(Oc2cccc(Cl)c2)ncc1-n1ncc(C(=O)c2cc3cc(F)c(NS(=O)(=O)CCCF)cc3[nH]2)c1N [Example 4-2-026, N-[2-[5-amino-1-[6-(3-chlorophenoxy)-4-methylpyridin-3-yl]pyrazole-4-carbonyl]-5-fluoro-1H-indol-6-yl]-3-fluoropropane-1-sulfonamide] |  |  |  | 3.6 nM | 120 nM | 37 nM

From patent publication US10479780B2, “Aminopyrazole derivatives” (Chugai Seiyaku Kabushiki Kaisha, priority 2015, dated 2019)
